Data on 1 compound can be found in PMC4127372 (Journal of pharmaceutical and biomedical analysis, 2014).

The conditions of the data set: pre-tested baboon plasma following intravenous infusion.

With `CCCCCCCCCCNCCN[C@@]1(C)C[C@H](O[C@H]2[C@H](Oc3c4cc5cc3Oc3ccc(cc3Cl)[C@@H](O)[C@@H](NC(=O)[C@@H](CC(C)C)NC)C(=O)N[C@@H](CC(N)=O)C(=O)N[C@H]5C(=O)N[C@H]3C(=O)N[C@H](C(=O)N[C@H](C(=O)O)c5cc(O)c(CNCP(=O)(O)O)c(O)c5-c5cc3ccc5O)[C@H](O)c3ccc(c(Cl)c3)O4)O[C@H](CO)[C@@H](O)[C@@H]2O)O[C@@H](C)[C@H]1O` [telavancin], the “lowest concentration of telavancin determined in pre-tested baboon plasma” value is “approximately 200 ng/ml”.
